In PubChem BioAssay (NCI):
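All cell lines were grown in 96-well plates and treated with compound for 48 hours. GI50 is the concentration that inhibits growth by half. TGI: total growth inhibition.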

Legend:
Assay in all cases: growth of human tumour cells (NCI), 48 h
[1] = test system: SK-OV-3 ovarian
[2] = test system: HCC-2998 colon
[3] = test system: BT-549 breast
[4] = test system: K-562 leukemia
[5] = test system: SK-MEL-2 melanoma
[6] = test system: SR leukemia
[7] = test system: SN12C renal
[8] = test system: SK-MEL-5 melanoma
[9] = test system: A549 NSCLC
[10] = test system: HS 578T breast

Work on O=c1[nH]c2cc3cccnc3c(Cl)c2nc1C(F)(F)F yielded a TGI [1] greater than 100 µM, a TGI [2] greater than 100 µM and a TGI [3] of 86.7 µM. For the same compound, the TGI [4] was greater than 100 µM, the TGI [5] was greater than 100 µM and the TGI [6] was greater than 100 µM. For the same compound, the TGI [7] was greater than 100 µM, the TGI [8] was 29.8 µM and the TGI [9] was greater than 100 µM. For the same compound, the TGI [10] was greater than 100 µM.

In the case of CCOC(=O)C1=C(C)C(C(=O)OC)/C(=C/c2cccc3cccnc23)C1=O (stereo not given), the TGI [1] is reported as greater than 10 µM, the TGI [2] is reported as greater than 10 µM and the TGI [3] is reported as greater than 10 µM. The TGI [4] was greater than 10 µM, the TGI [5] was greater than 10 µM and the TGI [6] was greater than 10 µM. For the same compound, the TGI [7] was greater than 10 µM, the TGI [8] was greater than 10 µM and the TGI [9] was greater than 10 µM. The TGI [10] was greater than 10 µM.

Work on COC(=O)c1ccc(CCc2cc(O)ccc2O)cc1 yielded a TGI [1] greater than 78 µM, a TGI [2] of 59.6 µM and a TGI [3] of 25.6 µM. The TGI [4] was greater than 31.6 µM, the TGI [5] was 55.6 µM and the TGI [6] was greater than 21 µM. For the same compound, the TGI [7] was 29.3 µM, the TGI [8] was 25.7 µM and the TGI [9] was greater than 61.3 µM. For the same compound, the TGI [10] was greater than 39.5 µM.

Cc1ccc(-n2c(O)c3c(N)n[nH]c3c(C#N)c2=O)cc1 showed a TGI [1] greater than 100 µM, a TGI [2] greater than 100 µM and a TGI [3] greater than 100 µM. For the same compound, the TGI [4] was greater than 100 µM, the TGI [5] was greater than 100 µM and the TGI [6] was greater than 100 µM. The TGI [7] was greater than 100 µM, the TGI [8] was greater than 100 µM and the TGI [9] was greater than 100 µM. It also gave a TGI [10] greater than 100 µM.

Compound CC(C)[C@H]1NC(=O)[C@H]2N=C(O[C@@H]2C)[C@@H]2CCCN2C(=O)[C@H](Cc2ccccc2)NC(=O)[C@@H]2CSC(=N2)[C@@H](Cc2ccccc2)NC(=O)[C@@H]2CSC1=N2 has a TGI [1] greater than 100 µM, a TGI [2] greater than 100 µM and a TGI [3] greater than 100 µM. The TGI [4] was greater than 100 µM, the TGI [5] was greater than 100 µM and the TGI [6] was greater than 100 µM. The TGI [7] was greater than 100 µM, the TGI [8] was greater than 100 µM and the TGI [9] was greater than 100 µM. For the same compound, the TGI [10] was greater than 100 µM.

Compound O=c1[nH]c2ccccc2nc1/C=C(\O)C(F)F has a TGI [1] greater than 100 µM, a TGI [2] greater than 100 µM and a TGI [3] greater than 100 µM. The TGI [4] was greater than 100 µM, the TGI [5] was greater than 100 µM and the TGI [6] was greater than 100 µM. It also gave a TGI [7] greater than 100 µM, a TGI [8] greater than 100 µM and a TGI [9] greater than 100 µM. The TGI [10] was greater than 100 µM.

In the case of N#Cc1c(N2CCCC2)ncn(Cc2ccccc2)c1=S, the TGI [1] is reported as greater than 100 µM, the TGI [2] is reported as greater than 100 µM and the TGI [3] is reported as greater than 100 µM. For the same compound, the TGI [4] was greater than 100 µM, the TGI [5] was greater than 100 µM and the TGI [6] was greater than 100 µM. For the same compound, the TGI [7] was greater than 100 µM, the TGI [8] was greater than 100 µM and the TGI [9] was greater than 100 µM. For the same compound, the TGI [10] was greater than 100 µM.

Cc1cc(N=Cc2c(CO)cnc(C)c2O)c(N=Cc2c(CO)cnc(C)c2O)cc1C.[Zn] showed a TGI [1] greater than 100 µM, a TGI [2] greater than 100 µM and a TGI [3] greater than 100 µM. The TGI [5] was greater than 100 µM, the GI50 [6] was greater than 100 µM and the TGI [6] was greater than 100 µM. For the same compound, the TGI [7] was greater than 100 µM, the TGI [8] was greater than 100 µM and the TGI [9] was greater than 100 µM. For the same compound, the TGI [10] was greater than 100 µM.

Compound O=c1c2ccccc2n2nnc3ccc(NCCCNCCNCCCNc4ccc5nnn6c7ccccc7c(=O)c4c56)c1c32 has a TGI [1] greater than 41.2 µM, a TGI [2] of 6.51 µM and a TGI [3] of 18.9 µM. It also gave a TGI [4] greater than 50 µM, a TGI [5] greater than 50 µM and a TGI [6] greater than 50 µM. For the same compound, the TGI [7] was 7.49 µM, the TGI [8] was greater than 50 µM and the TGI [9] was 20.8 µM. For the same compound, the TGI [10] was 37.6 µM.

Nc1ccccc1NC(=O)CCCCCCC(=O)Nc1ccc2c(c1)/C(=C/c1ccc[nH]1)C(=O)N2 was tested, and the GI50 [1] was 6.72 µM, the TGI [1] was greater than 100 µM and the GI50 [2] was greater than 100 µM. The TGI [2] was greater than 100 µM, the GI50 [3] was 0.391 µM and the TGI [3] was greater than 100 µM. For the same compound, the GI50 [4] was 8.75 µM, the TGI [4] was greater than 100 µM and the GI50 [5] was 5.73 µM. It also gave a TGI [5] greater than 100 µM, a GI50 [6] of 4.64 µM and a TGI [6] greater than 100 µM. It also gave a GI50 [7] of 4.68 µM, a TGI [7] greater than 100 µM and a GI50 [8] greater than 100 µM. It also gave a TGI [8] greater than 100 µM, a GI50 [9] greater than 100 µM and a TGI [9] greater than 100 µM. It also gave a GI50 [10] of 47.6 µM and a TGI [10] greater than 100 µM.

N#CC(C#N)=Cc1c(O)ccc2ccccc12 gave a TGI [1] of 34.7 µM, a TGI [2] of 33.1 µM and a TGI [3] of 32.1 µM. The TGI [4] was 24.6 µM, the TGI [5] was 37.8 µM and the TGI [6] was 13.6 µM. It also gave a TGI [7] of 27.3 µM, a TGI [8] of 26.2 µM and a TGI [9] of 38 µM. For the same compound, the TGI [10] was 55.5 µM.

For O=C1C=C2CO[C@H]3OC[C@H](O)[C@@H]1[C@@H]23, the TGI [1] was greater than 100 µM, the TGI [2] was greater than 100 µM and the TGI [3] was greater than 100 µM. It also gave a TGI [4] greater than 100 µM, a TGI [5] of 37.3 µM and a TGI [6] of 63.1 µM. It also gave a TGI [7] of 90 µM, a TGI [8] greater than 100 µM and a TGI [9] greater than 100 µM. For the same compound, the TGI [10] was greater than 100 µM.

Cc1ccc(C)c(COCCOCn2cc(Br)c(N)nc2=O)c1 showed a TGI [1] greater than 100 µM, a TGI [2] greater than 100 µM and a TGI [3] greater than 100 µM. For the same compound, the TGI [4] was greater than 100 µM, the TGI [5] was greater than 100 µM and the TGI [6] was greater than 100 µM. For the same compound, the TGI [7] was greater than 100 µM, the TGI [9] was greater than 100 µM and the TGI [10] was greater than 100 µM.

Cc1ccc(S(=O)(=O)NC(=O)NCCC(=O)O)cc1 showed a TGI [1] greater than 100 µM, a TGI [3] greater than 100 µM and a TGI [4] greater than 100 µM. For the same compound, the TGI [5] was greater than 100 µM, the TGI [6] was greater than 100 µM and the TGI [7] was greater than 100 µM. The TGI [8] was greater than 100 µM, the TGI [9] was greater than 100 µM and the TGI [10] was greater than 100 µM.

In the case of Cc1cc(Nc2ccc(N=Nc3ccc(O)c4ncccc34)cc2)nc(C)n1, the TGI [1] is reported as greater than 72.7 µM, the TGI [3] is reported as greater than 84.4 µM and the TGI [4] is reported as 39.1 µM. The TGI [5] was 34.4 µM, the TGI [6] was greater than 100 µM and the TGI [7] was greater than 88.2 µM. It also gave a TGI [8] of 26.3 µM, a TGI [9] of 38.3 µM and a TGI [10] greater than 59.4 µM.

Work on O=C(NC1(C(=O)NNc2nnc(-c3ccccc3)c(-c3ccccc3)n2)C(c2ccccc2)C(c2ccccc2)=NN1c1ccccc1)c1ccccc1 (stereo not given) yielded a TGI [1] greater than 100 µM, a TGI [2] greater than 100 µM and a TGI [3] greater than 100 µM. It also gave a TGI [5] greater than 100 µM, a TGI [6] greater than 100 µM and a TGI [8] greater than 100 µM. The TGI [9] was greater than 100 µM and the TGI [10] was greater than 100 µM.
